Experimental data: patent publication US7166299B2, “Preparation of aqueous clear solution dosage forms with bile acids” (priority 1998, dated 2007)
Several values for one entry are separate records, joined by “and”; a condition that tells them apart may be missing. Equal entries are not always repeated.

Assays:
[1] = Solution stability test (HPLC) of mixed bile acids with maltodextrin in aqueous solution, Example II; type: physicochemical; conditions: Table 2: pH 1, 50° C.
Experimental: (§1) The stability of dosage formulations of the invention were evaluated by measuring the concentration of the relevant bile acid over time in preparations comprising soluble bile acid, a high molecular weight aqueous soluble starch conversion product, and water at various pH and temperature levels. The retention time of each bile acid may be adjusted as needed to permit individual analysis each bile acid present in a complex samples, i.e. a sample having a plurality of bile acids.
(§2) The stability tests were conducted on three different aqueous solution systems: […].
(§3) The stability tests were performed with HPLC and microscope light at various pH conditions under the normal and accelerated conditions. Accelerated conditions for testing pharmaceutical compositions have been described (Remington, The Science and Practice of Pharmacy, 19th ed., p. 640). […] Thus, the formulations of the examples are suitable for preparing a commercial liquid dosage form. […] Some formulations remain stable for over 2 years.
(§4) For the solution stability test for each bile acid, HPLC was used to measure the concentration of the relevant soluble bile acid under the following conditions: the elution solvent of 0.02 M KH2PO4:acetonitrile in a ratio of 55:45, with a pH of 3.01, the flow rate was 0.8 mL/min., the injection volume was 20 μL, wave length for detection was 195 nm. In the tables, the concentration of the indicated bile acid salt for each of the three numbered trials and the average thereof is reported on each line. The percentage indicates the relative concentration of the bile acid salt after incubation for a certain amount of time in comparison with the initial concentration.
Into the resulting clear solution, maltodextrin was added with agitating at room temperature. Purified water was added to adjust the total volume to be 100 mL.

[2] = cited from earlier work
[3] = Solution stability test (HPLC) of single bile acid with maltodextrin in aqueous solution, Example I; type: physicochemical
Experimental: as §1, §2, §3, §4
100 mL of the aqueous solution in which one of the above bile acids is dissolved was prepared. Into the resulting clear solution, maltodextrin, a high molecular weight aqueous soluble starch conversion product, was added with agitation at room temperature. Purified water was added to adjust the total volume to be 100 mL. According to the instant invention and all examples, purified water is deionized, distilled deionized-distilled water, or a grade commonly used for pharmaceutical preparations.

[4] = Table 1B: pH 10, 50° C., day 20

SMILES | Percentage of day 0 concentration ([1]; day 0) [%] | concentration by HPLC, Average ([1]; day 0) | concentration by HPLC, trials #1-#3 ([1]; day 0) | Percentage of day 0 concentration ([1]; day 4) [%] | concentration by HPLC, Average ([1]; day 4) | concentration by HPLC, trials #1-#3 ([1]; day 4) | Percentage of day 0 concentration ([1]; day 7) [%] | concentration by HPLC, Average ([1]; day 7) | concentration by HPLC, trials #1-#3 ([1]; day 7) | Percentage of day 0 concentration ([1]; day 20) [%] | concentration by HPLC, Average ([1]; day 20) | concentration by HPLC, trials #1-#3 ([1]; day 20) | solubility in the gastric juices and in aqueous hydrochloric acid solution [2] | Percentage of day 0 concentration ([3]; Table 1A: pH 7, 50° C., day 0) [%] | concentration by HPLC, Average ([3]; Table 1A: pH 7, 50° C., day 0) | concentration by HPLC, trials #1-#3 ([3]; Table 1A: pH 7, 50° C., day 0) | Percentage of day 0 concentration ([3]; Table 1A: pH 7, 50° C., day 4) [%] | concentration by HPLC, Average ([3]; Table 1A: pH 7, 50° C., day 4) | concentration by HPLC, trials #1-#3 ([3]; Table 1A: pH 7, 50° C., day 4) | Percentage of day 0 concentration ([3]; Table 1A: pH 7, 50° C., day 7) [%] | also measured
C[C@H](CCC(=O)O)[C@H]1CC[C@H]2[C@@H]3[C@H](O)C[C@@H]4C[C@H](O)CC[C@]4(C)[C@H]3CC[C@]12C [CDCA, chenodeoxycholic acid (3α, 7α-dihydroxy-5β-cholanic acid)] | 100.0 | 0.534 | 0.560 and 0.528 and 0.513 | 94.7 | 0.506 | 0.488 and 0.510 and 0.519 | 87.0 | 0.464 | 0.460 and 0.469 and 0.463 | 30.2 | 0.161 | 0.169 and 0.154 | especially insoluble | 100.0 | 0.547 | 0.572 and 0.539 and 0.530 | 101.6 | 0.556 | 0.540 and 0.552 and 0.576 | 105.0 | solubility in the gastric pH range [2]: no longer soluble; solubility in water [2]: practically insoluble; concentration by HPLC, Average ([3]; Table 1A: pH 7, 50° C., day 7): 0.574; concentration by HPLC, trials #1-#3 ([3]; Table 1A: pH 7, 50° C., day 7): 0.581 and 0.588 and 0.553; Percentage of day 0 concentration ([3]; Table 1A: pH 7, 50° C., day 20): 105.7%; concentration by HPLC, Average ([3]; Table 1A: pH 7, 50° C., day 20): 0.578; concentration by HPLC, trials #1-#3 ([3]; Table 1A: pH 7, 50° C., day 20): 0.565 and 0.608 and 0.560; Percentage of day 0 concentration ([3]; Table 1B: pH 10, 50° C., day 0): 100.0%; concentration by HPLC, Average ([3]; Table 1B: pH 10, 50° C., day 0): 0.522; concentration by HPLC, trials #1-#3 ([3]; Table 1B: pH 10, 50° C., day 0): 0.541 and 0.532 and 0.495; Percentage of day 0 concentration ([3]; Table 1B: pH 10, 50° C., day 4): 100.0%; concentration by HPLC, Average ([3]; Table 1B: pH 10, 50° C., day 4): 0.523; concentration by HPLC, trials #1-#3 ([3]; Table 1B: pH 10, 50° C., day 4): 0.511 and 0.519 and 0.538; Percentage of day 0 concentration ([3]; Table 1B: pH 10, 50° C., day 7): 104.1%; concentration by HPLC, Average ([3]; Table 1B: pH 10, 50° C., day 7): 0.544; concentration by HPLC, trials #1-#3 ([3]; Table 1B: pH 10, 50° C., day 7): 0.564 and 0.527 and 0.540; Percentage of day 0 concentration [3, 4]: 107.4%; concentration by HPLC, Average [3, 4]: 0.561; concentration by HPLC, trials #1-#3 [3, 4]: 0.556 and 0.569 and 0.558
C[C@H](CCC(=O)O)[C@H]1CC[C@H]2[C@@H]3C(=O)C[C@@H]4C[C@H](O)CC[C@]4(C)[C@H]3CC[C@]12C [KLCA, 7-ketolithocholic acid] | 100.0 | 0.876 | 0.883 and 0.877 and 0.869 | 98.3 | 0.861 | 0.870 and 0.866 and 0.847 | 96.4 | 0.845 | 0.848 and 0.844 and 0.843 | 74.9 | 0.656 | 0.661 and 0.651 | especially insoluble | 100.0 | 0.880 | 0.888 and 0.879 and 0.874 | 100.2 | 0.882 | 0.871 and 0.887 and 0.888 | 101.4 | concentration by HPLC, Average ([3]; Table 1A: pH 7, 50° C., day 7): 0.893; concentration by HPLC, trials #1-#3 ([3]; Table 1A: pH 7, 50° C., day 7): 0.897 and 0.893 and 0.888; Percentage of day 0 concentration ([3]; Table 1A: pH 7, 50° C., day 20): 102.1%; concentration by HPLC, Average ([3]; Table 1A: pH 7, 50° C., day 20): 0.899; concentration by HPLC, trials #1-#3 ([3]; Table 1A: pH 7, 50° C., day 20): 0.893 and 0.909 and 0.894; Percentage of day 0 concentration ([3]; Table 1B: pH 10, 50° C., day 0): 100.0%; concentration by HPLC, Average ([3]; Table 1B: pH 10, 50° C., day 0): 0.870; concentration by HPLC, trials #1-#3 ([3]; Table 1B: pH 10, 50° C., day 0): 0.879 and 0.874 and 0.857; Percentage of day 0 concentration ([3]; Table 1B: pH 10, 50° C., day 4): 100.5%; concentration by HPLC, Average ([3]; Table 1B: pH 10, 50° C., day 4): 0.874; concentration by HPLC, trials #1-#3 ([3]; Table 1B: pH 10, 50° C., day 4): 0.870 and 0.873 and 0.880; Percentage of day 0 concentration ([3]; Table 1B: pH 10, 50° C., day 7): 101.5%; concentration by HPLC, Average ([3]; Table 1B: pH 10, 50° C., day 7): 0.884; concentration by HPLC, trials #1-#3 ([3]; Table 1B: pH 10, 50° C., day 7): 0.893 and 0.876 and 0.882; Percentage of day 0 concentration [3, 4]: 102.2%; concentration by HPLC, Average [3, 4]: 0.889; concentration by HPLC, trials #1-#3 [3, 4]: 0.887 and 0.893
